Experimental findings from US9533049B2, “Method for preparing nanoparticles based on functional amphiphilic molecules or macromolecules, and the use thereof” (UNIVERSITE VICTOR SEGALEN BOURDEAUX 2, priority 2007, dated 2017) are described below.

What all share (type): cell-based
The test system of experiment [1] is IGROV1 cells. Put plainly: Assay of intracellular cis-platin (ICP optical assay after cell lysis). The note with it: 10^6 cells, 100 μM, 2 h. The protocol: IGROV1 cells (ovarian adenocarcinoma line) at 80% confluence (dish 10 cm in diameter) are treated with 100 μM of free cis-platin or cis-platin encapsulated in the nanoparticles of Example 16 for 2, 4 or 6 h. On completion of this treatment two washings with PBS are carried out. The cells are treated with trypsin and resuspended in PBS. Two washings of the cell suspensions with PBS are carried out (centrifugation 1000 rpm/1 min). The cells are suspended in 1 mL of PBS and counted.
10^6 cells are lysed with 500 μL of the cell lysis solution (lysis buffer from SIGMA). The volume is topped up to 5 mL with milli-Q water with 1% HNO3 acid.

Experiment [2] deals with human cancer cell line HCT8 (colorectal adenocarcinoma). Kind of experiment: Cytotoxicity, crystal violet staining, HCT8 line. The note with it: HCT8, short exposure 30 min in physiological serum; preliminary results. As to the method:
The test implemented uses the human cancer cell line HCT8 (colorectal adenocarcinoma), known for its intrinsic resistance to platinum derivatives.
The protocol is as follows: • […], the cells are implanted in 96-well plates at a density of 50,000 cells per well. • On D0, the cells are treated by the formulation test, either for a short exposure period (30 min) in physiological serum, or for a long exposure period (72 h) in culture medium. The range of concentrations produced comprises the points 0-0.4-0.8-1.5-3-6.25-12.5-25-50 and 100 mg/L. Negative controls (untreated cells) and positive controls (cis-platin) were carried out simultaneously. • On D3, the culture medium is changed, and the 72 h treatment stopped. • On D6, the protocol is completed, and the cells remaining at the bottom of the well are stained with crystal violet.
The survival of the cells was determined, and the overall percentage of death (or cytotoxicity) obtained at the different test formulation concentrations was compared with that obtained with the negative controls (untreated cells). The cytotoxicity results were presented in the form of dose-effect curves characterized by their inhibitory concentration 50 (IC50), i.e. the concentration at which 50% dead cells are observed.

Experiment [3] concerns IGROV1 cells. Put plainly: Cytotoxicity, MTS colorimetric assay (Example 21). As to conditions: IGROV1, incubation time 24 h. As to the method:
1000 to 5000 IGROV1 cells are incubated in 100 μL of medium with serum per well (96-well plate). After 24 h the medium is removed and the cells are treated for 1 to 3 days with the formulations according to the invention and/or free cis-Pt (at the desired concentrations). The cells are incubated at 37° C. in 200 μL of medium with serum.
The survival of the cells was determined, and the overall percentage of death (or cytotoxicity) obtained at the different concentrations of formulations tested was compared with that obtained with the negative controls (untreated cells). The cytotoxicity results were presented in the form of dose-effect curves characterized by their inhibitory concentration 50 (IC50), i.e. the concentration at which 50% dead cells are observed.
On the technique in general: Tetrazolium dyes change colour on reduction, which living cells bring about.

Experiment [4] relates to IGROV1 (ovarian adenocarcinoma line, sensitive to cis-platin). Put plainly: Cytotoxicity, MTS assay (Example 22), IGROV1. As to conditions: IGROV1, treatment 24 hours in medium without serum, MTS 48 hours after washing; read-out: concentration necessary to obtain 50% cell death (IC50). The protocol:
(§1) 2500 cells (IGROV1, SKOV3, ovarian adenocarcinoma lines) per well are incubated in 100 μL of the medium with serum in a 96-well plate. After 24 hours the medium is aspirated and the cells are treated with free cis-platin or cis-platin encapsulated in the nanoparticles of Example 16 in 100 μL of the medium without serum at different concentrations (500, 100, 10, 1, 0.1, 0.01, 0.001 μM). After treatment for 24 hours, the medium is removed and the cells are washed twice with 100 μL of PBS then incubated with 100 μL of the medium with serum.
(§2) The absorbance at 490 nm is measured after incubation for 2 to 4 hours at 37° C. The absorbance is proportional to the cell viability.

Experiment [5] relates to SKOV3 (ovarian adenocarcinoma line, resistant to cis-platin). Put plainly: Cytotoxicity, MTS assay (Example 22), SKOV3. As to conditions: SKOV3, treatment 24 hours in medium without serum, MTS 48 hours after washing; read-out: concentration necessary to obtain 50% cell death (IC50). As to the method:
as §1, §2

Take `N.N.[Cl][Pt][Cl]` [cis-platin]: the cis-platin internalized with IGROV1 cells [1] came out at 0.5 nmol. Moreover, in experiment [2], the “IC50 (mg/L)” value was “IC50 > at 100 mg/L”. Further, the “IC50 Expressed” value in the experiment with IGROV1 cells [3] (mg/L of cis-platin) worked out at 9.48 µg/mL. Further, the values for the IC50 (in the experiment on IGROV1 cells [3] (read-out: IC50 Expressed); in experiment [4]; in experiment [5]) were 31.6 µM, 2.41 µM and 4.3 µM, respectively.
